Results published in US12589085B2, “Use of diaminoguanidine derivative and feed composition thereof in preparation of veterinary drug” (priority 2019, dated 2026).
Read-outs that look alike come from different tables or passages of the source.

Key:
[1] = tested on: sperm; conditions: cyclophosphamide 40 mg/kg once a day 5 days
Procedure: Experimental animals: 60 clean-grade healthy male ICR mice having the average weight of 18-20 g, purchased from the Comparative Medicine Center of Yangzhou University.
Reagents: Test agent, Compound 2, provided by Guangzhou Insighter Biotechnology Co., Ltd., was prepared into a suspension of the required concentration with 1.0% sodium carboxymethyl cellulose before use; the mutagenic positive control article of cyclophosphamide with the content of 99.00%; other reagents include sodium chloride, methanol, and eosin, all of analytical grade; self-prepared physiological saline; self-prepared eosin aqueous solution (2%).
The test article, Compound 2 was diluted with 1.0% sodium carboxymethyl cellulose as a solvent, and it was given by oral in different concentrations and the same volume. There is also a positive control and a negative (solvent) control. The cyclophosphamide was selected as the positive control (40 mg/kg).
Grouping of experimental animals: 60 healthy male mice were individually weighed, labeled and numbered, and they were divided into 5 groups with 12 mice in each group using a completely random method. It was ensured that 10 animals in each group survive for sampling and film making after administration.
Administration: The administration method is carried out according to GB15193.7-2003. The test group, the negative control and the positive control are all given the test article by oral once a day for 5 consecutive days. The weight of the mouse for each administration was weighed, and the volume of the test article that each mouse should administer was calculated according to the requirements of the mouse 0.2 mL/10 g b.w.
Sampling and sample preparation: The mice were sacrificed by cervical dislocation on the Day 35 after the first administration, and sampling and film making were performed. 10 mice were sampled in each dose group. The abdominal cavity was cut, the epididymis on both sides were separated and extracted, and put in a petri dish containing 2 mL of normal saline; The mice were longitudinally cut with ophthalmological scissors for 2 times, the normal saline in it was pipetted with a straw for several times, and let stand for 3 min; the tissue fragments were filtered with a 4-layer of lens cleaning paper, 1 drop of the filtrate was drawn onto the glass slide, the slide was pushed with 4 slides per mouse; the slide in the air dried naturally, and fixed with methanol for 10 minutes, and dried; stained with 2% eosin for 1 h, the dye solution was gently washed off with water, and it was dried naturally before microscopic examination.
Data collation and analysis: The number of normal sperm, the number of abnormal sperm and the number of various types of abnormal sperm were read and counted in each dose group of mice. The sperm abnormality rate (%) of mice in each dose group and the percentage (%) of various types of abnormal sperm were calculated, and the standard deviation of the sperm abnormality rate of mice was also calculated in each dose group. Calculation as follows:
The sperm abnormality rate of mice in each dose group was statistically compared with the sperm abnormality rate of mice in the negative (solvent) control. The experimental data was processed by SPSS 11.0 statistical software, and the analysis results were expressed as x±SD, and the incidence of sperm abnormalities was statistically processed according to the X^2 (α=0.05).
If the dose of the test group has caused the animal to die, while the sperm abnormality has not increased, the result can be judged to be negative.

[2] = tested on: bone marrow cells of mice; conditions: cyclophosphamide 40 mg/kg intraperitoneal, n = 5
Procedure: Experimental animals: 60 clean and healthy ICR mice have the average weight of 18-20 g, half female and half male, purchased from the Comparative Medicine Center of Yangzhou University. […]
Specimen preparation: 6 hours after the second administration of the test article, […] and 5 […] in each group were sacrificed by cervical dislocation. […] The fixed smear is stained with Giemsa application solution for 15-30 min, rinsed with distilled water, dried, and gets ready for inspection.
The film was read by double-blind method, the number of polychromatic red blood cells (PCE) of each mouse was recorded in each group, including the number of micronucleus PCE cells, and the number of mature red blood cells (RBC), and the like. The number of polychromatic red blood cells (PCE) was calculated, including the number of micronucleus PCE cells and the number of mature red blood cells (RBC) in each test group of male and female mice respectively, and the results were listed.
The experimental data is processed by SPSS 11.0 statistical software, and the analysis result is expressed as x±SD, and the incidence of micronucleus is statistically processed according to the X^2 test (α=0.05).

O=P1(N(CCCl)CCCl)NCCCO1 (stereo not drawn) [Positive control, cyclophosphamide, reference compound] was tested, and the “Total number of abnormal sperm” value ([1]; Day 35, 10000 sperm) was 559, the “abnormal sperm: Amorphous” value ([1]; Day 35, 10000 sperm) was 248 and the “abnormal sperm: Banana shape” value ([1]; Day 35, 10000 sperm) was 91. For the same compound, the “abnormal sperm: Double head” value ([1]; Day 35, 10000 sperm) was 13, the “abnormal sperm: Double tail” value ([1]; Day 35, 10000 sperm) was 25 and the “abnormal sperm: Fat head” value ([1]; Day 35, 10000 sperm) was 21. The “abnormal sperm: Fold tail” value ([1]; Day 35, 10000 sperm) was 12, the “abnormal sperm: No hook” value ([1]; Day 35, 10000 sperm) was 149 and the “Number of Abnormal sperm (x ± SD)” value ([1]; Day 35, n = 10) was 55.90. The Sperm deformity ([1]; Day 35, n = 10) was 5.26 ± 0.18%, the “PCE micronucleus rate” value ([2]; female mice) was 15.00 ± 2.42 ‰ and the PCE micronucleus rate ([2]; male mice) was 15.20 ± 2.37 ‰.
